Laboratory results: patent US9593362B2, “Fluorogenic glycosidase substrate and associated detection method” (ECOLE NORMALE SUPERIEURE DE LYON, priority 2012, dated 2017)

How the values were obtained:
[1] = cited from earlier work
[2] = system: beta-galactosidase (EC 3.2.1.23; b-gal); assay: Enzymatic assay: incubation of the probe with beta-galactosidase, microplate fluorescence; assay type: biochemical
Experimental: (§1) Probe I.1 was evaluated by incubation with the target enzyme beta-galactosidase (EC 3.2.1.23; <<b-gal>>; commercial) in in vitro medium and in multi-well micro-plates designed for fluorescence readers.
(§2) The main assays were conducted at 25° C. in solutions buffered at pH 7.4, physiological pH). Assays at 37° C. would have required protection of the wells against early evaporation e.g. by covering with a film which would have caused a strong reduction in the sensitivity of fluorescence measurement. A temperature of 25° C. was therefore preferred.
In the invention when implementing the enzymatic assays, once the minimum concentration allowing triggering of crystal nucleation is reached, there is depositing of a solid fluorophore in a well of a multi-well plate.
(§3) The following enzymatic assays of probe I.1 were performed in a 96-well microplate in a microplate spectrofluorimeter of Mithras LB 940 type by BERTHOLD TECHNOLOGIES. The excitation wavelength was set at 355 and the detection wavelength at 510 nm, conforming to the spectral properties of dichloro-HPQ.

[3] = Negative control of the enzymatic assay: probe in buffered aqueous medium without enzyme (background fluorescence / hydrolytic robustness); assay type: physicochemical; details: probe 25 μM, no b-gal, pH 7.4, 25° C., excitation 355 / detection 510 nm
Experimental: as §1, §2, §3

[4] = system: cells of C17.2 type which express the target enzyme b-gal constitutively; assay: Incubation of the probe with C17.2 cells, microplate fluorescence; assay type: cell-based; details: probe 25 μM, culture plate without serum
Experimental: The experiment was conducted in a cell culture plate without serum, and the fluorescence signal was measured by the microplate spectrofluorimeter of Mithras LB 940 type by BERTHOLD TECHNOLOGIES.

[5] = system: cells expressing b-gal constitutively; assay: Fluorescence microscopy of cells incubated with the probe; assay type: cell-based; details: probe 25 μM, 48 hours, serum-free medium
Experimental: FIG. 4 is a microscope image of the fluorescence of cells expressing b-gal constitutively and which were incubated by probe I.1 at 25 μM for 48 hours in a serum-free medium.

Row | trend in fluorescence signal with increasing probe concentration ([2]; b-gal fixed at 20 μM, three concentrations of probe) | dependence of the fluorescence signal on the concentration of target enzyme ([2]; probe fixed at 25 μM, three concentrations of b-gal) | trend in the fluorescence signal in the absence of enzyme (negative control) [3] | capacity to cross the cell membrane [4] | Structure (SMILES) | solubility in aqueous/physiological media [1] | conversion by intracellular b-gal (fluorescence signal) [4] | fluorescent precipitate in cells (microscope image) [5]
1 | – | – | – | – | O=c1[nH]c(-c2cc(Cl)ccc2O)nc2ccc(Cl)cc12 [dichloro-HPQ, 6-chloro-2-(5-chloro-2-hydroxyphenyl)-4(3H)-Quinazolinone] | fully insoluble | – | –
2 | Strong growth of the signal | independency of the signal | total absence of a fluorescence signal | cross the cell membrane | O=C(Oc1ccc(Cl)cc1-c1nc2ccc(Cl)cc2c(=O)[nH]1)N1CCCCC1CO[C@@H]1O[C@H](CO)[C@H](O)[C@H](O)[C@H]1O (stereo partly shown) [probe I.1] | – | converted by the enzyme | highly fluorescent dichloro-HPQ is precipitated
